Legend:
Assay type in all cases: in vivo, rat
[1] = test system: quisqualic acid lesioned rats; assay: Quisqualic acid (QUIS) injection in Nucleus Basalis Magnocellularis of rats: immunohistochemistry for neurodegeneration and neuroinflammation (ChAT, GFAP, OX42)
From the text: (§1) The efficacy of the compounds of the invention on neurodegeneration and neuroinflammation can be evaluated with two different methodological approaches aimed to reproduce some pathological features of Alzheimer's disease: • 1) the excitotoxic insult (quisqualic acid—QUIS) in the Nucleus Basalis Magnocellularis (NBM), characterized by severe neurodegeneration of cholinergic neurons along with significant neuroinflammation. • 2) the β-amyloid peptide 25-35 (Aβ25-35) injection in NBM of rats, inducing a significant glia reaction around Aβ25-35 deposits with modest toxicity on cholinergic neurons. • Readouts are based on immunochemical analysis and are: count of cholinergic neurons (ChAT-positive), astrocytes (GFAP-positive) and microglia (OX-42 or Iba-1 positive). The analysis is performed by two different approaches, the visual scoring (blind) and the digital platform APERIO®.
(§2) Three-month old male Wistar rats (Harlan, Milan, Italy) weighing 230-250 g were used. The rats were housed in macrolon cages with ad lib food and water and maintained on a 12 h light/dark cycle at 23° C. room temperature (RT). All experiments were carried out according to the guidelines of the European Community's Council for Animal Experiments (86/609/EEC). Efforts were made to minimize the number of animals used and their suffering.
The quisqualic acid (Sigma Chemical Co., Milan, Italy; dissolved in phosphate buffer at the concentration of 0.12 M volume 0.5 μl) or 10 ug of ABeta(25-35) peptide (Bachem) dissolved PBS at the concentration of 10 μg/μl and aggregate at 37° for 2 h before injection volume 1 μl) was injected by means of an Hamilton microsyringe into the right NBM under chloral hydrate anaesthesia at the following stereotaxic coordinates: AP=−0.2, L=−2.8 from bregma and H=7 from the dura (Paxinos and Watson, 1982, Casamenti et al., 1998). Controlateral NBM were injected with PBS solution. The study was performed for 7 days after surgery. […]

[2] = test system: quisqualic acid lesioned rats; assay: Object Recognition Test (ORT) on quisqualic acid lesioned rats; details: exploration time of familiar vs novel object
Procedure: QUIS-treated animals can also undergo the Object Recognition Test (ORT, measuring episodic memory) or other behavioural tests to measure the improvement of cognitive functions upon treatment with a compound of the invention.
as §2, with “suffering. […]” for “suffering.”
Object recognition was evaluated according to Ennanceur and Delacour (1988) and Scali et al., (1997). […] The times spent exploring the familiar (F) and the new object (N) were recorded separately and the difference between the two exploration times was taken. […]

[3] = test system: Abeta(25-35) lesioned rats; assay: Abeta(25-35) peptide injection in NBM of rats: GFAP staining; details: 30 mg/kg, Kruskall-Wallis
From the text: as §1
as §2, with “suffering. […]” for “suffering.”

Q: Which results are given for `CCCC(C(=O)Nc1cnc(Br)cn1)c1cncc(Br)c1` (stereo not drawn) [Example 33, 2-(5-Bromo-pyridin-3-yl)-pentanoic acid (5-bromo-pyrazin-2-yl)-amide]?
A: Neuroprotective effect, rat NBM ChAT-positive neuron counts (APERIO) ([1]; 30 and 60 mg/Kg/day p.o., QUIS lesioned rats): strong neuroprotective effects; Anti-neuroinflammatory effect on astrocytes, GFAP reactivity ([1]; 30 and 60 mg/Kg/day, QUIS lesioned rats): strong activity on GFAP reactivity; Anti-neuroinflammatory and neuroprotective activity in the in vivo assays (FIGS. 1-3) ([1]; doses ranging 10 to 60 mg/kg): anti-neuroinflammatory and neuroprotective activity; Cognitive functions in ORT (episodic memory) [2]: improved cognitive functions; Cognitive functions in ORT (episodic memory) ([2]; listed as example 33): significantly ameliorates cognitive functions; GFAP-positive cells, quantitative analysis by visual scoring [3]: p<0.05 vs vehicle group
